Results published in patent US20230242474A1, “LIPID COMPOUND AND THE COMPOSITION THEREOF” (GUANGZHOU RIBOBIO CO., LTD, priority 2020, published 2023).
Values joined by “and” are separate entries in the source; they are usually repeats but may differ in a detail not shown here. Identical values can stand only once. Like-named read-outs stand apart in the source and are kept apart here.

Tests used:
Wistar rats = assay: Safety evaluation of LNP: acute toxicity test in rat; format: in vivo; parameters: key to Histopathological result, Muscle tissue / Histopathological result, Heart / Histopathological result, Liver / Histopathological result, Kidney / Histopathological result, Spleen / Histopathological result, Thymus / Histopathological result, Lymph nodes / Histopathological result, Pancreas: ″—″ means no abnormality
Experimental: Wistar rats including 4 males and 4 females, with a weight difference of no more than 10%, were selected and randomly divided into two groups: solvent control group and tested substance group. The concentration used in the measurement was 2 mg/mL. Each animal was administered 3 times a day with the volume of each injection as 250 μl. The administration interval was 4 hours. Alternate administration to the left and right legs were performed. The total dosage level was 1.50 mg per rat, which was equivalent to 1200 times the maximum unit weight dosage level for human (assuming the maximum dosage level for human is 0.25 mg). Clinical observation was recorded as follows. Within 24 hours after administration, clinical observation was carried out every hour. Within 24-72 hours after administration, clinical observation was carried out once every 6 hours. Within 4-14 days after administration, clinical observation was carried out once a day. The symptoms of toxicity, the time when the symptoms appeared and disappeared, and the time of death (if occurred) were recorded. Body weight was recorded once a day after administration, and food intake was recorded every 2 days after administration. 14 days after the administration, all the remaining animals were weighed, then euthanized, and major organs were obtained by anatomy. Heart, liver, spleen, lung, kidney, thymus, lymph node, were weighted and relative organ weight (the organ weight/the subject weight×100%; also known as organ coefficient) was calculated. After anatomy, the heart, liver, spleen, lung, kidney, intestine, thymus, lymph node, muscle tissue at the injection site and other organs with pathological changes observed were stored in a fixation solution, and the pathology of each organ was examined by H&E staining. Lesion severity scores were given according to the table below.
Specifically, the body weight of male rats in the solvent control group continued to increase. […] The food intake per rat in the solvent control group within 24 hours was stable, within a range of 18-35 grams.

[1] = test system: T lymphocytes secreting INFγ; assay: ELISPOT count of T lymphocytes secreting INFγ after immunization with LNP-encapsulated SARS-CoV-2 S protein mRNA; format: in vivo, BALB/c mice; details: S protein (1 μg) stimulation, intramuscular Day 0 and Day 14, spleens after 7 days
BALB/c mice = assay: Transfection efficiency: in vivo bioluminescence of luciferase mRNA encapsulated by different LNP; details: intramuscular injection, 1 μg/ mice
Experimental: All animals were kept in adaptive feeding for more than 7 days before experiments, free to uptake food and drink water during experimental period, illumination 12/12 h alternating light and dark, room temperature was 20-26° C., humidity was 40-70%.
Experimental method: female BALB/c mice, encapsulated luciferase mRNA with different LNP by four different administrations which included subcutaneous injection (under the armpit), tail vein injection, intraperitoneal injection, intramuscular injection (the tibialis anterior muscle of mouse hind leg); 3, 6, 24, 48 h after administration, applied in vivo fluorescence imaging system (brand: Bruker, model: XTREME) for bioluminescence detection, the specific steps were as follows: substrate preparation: took appropriate amount of substrate Luciferin (brand: Promega) and added saline to make a 10 mg/ml solution, avoided light, injected 100 μl solution into each mouse intraperitoneally. […] Put the anesthetized mouse into machine, set the bioluminescence setting and took the photos, captured the photograph and then adjusted the upper and lower values of photograph, then collected data on the concentrated distribution of fluorescence (e.g., fluorescence intensity, average photons number, and total photons number) and processed data. Statistical analysis: the in vivo imaging outcome were shown in the fluorescence intensity or average of total photons number of different animal in the same tested group, which were used to judge whether the fluorescence intensity or total photon number of luciferase mRNA encapsulated by different LNP were high or low.
The fluorescence intensity and total photons number reflects the transfection efficiency of LNP, the value is higher, referring to the efficiency of delivering encapsulated substance into cell by LNP is higher.

[2] = test system: S protein specific IgG antibody; format: in vivo, BALB/c mice; details: 14 days after the second immunization, LNP with S protein mRNA, FIG. 5
[3] = format: physicochemical
[4] = H&E, day 14, 1.50 mg per rat, animals 1001 and 1101
[5] = empty LNP, 1.50 mg per rat i.m., day 14, average of male, female rat
[6] = empty LNP, 1.50 mg per rat, day 14
[7] = LNP empty vector used in the rat safety study, Table 5
[8] = LNP with SARS-CoV-2 S protein mRNA, Table 9
[9] = lipid nanoparticle of the ionizable lipid with mRNA, Table 1

Compound: CCCCCCOCC(COCCCCCC)OC(=O)CCCCCCCN(CCO)CCCCCCCC(=O)OC(COCCCCCC)COCCCCCC [A18]
- Overall pathological changes after the 1200 times higher dosage level of the LNP injection (Wistar rats; 1.50 mg per rat, 1200 times the maximum unit weight dosage level for human): only slight pathological changes in the lungs and legs
- Histopathological result, Heart (Wistar rats; [4]): —
- Histopathological result, Kidney (Wistar rats; [4]): —
- Histopathological result, Liver (Wistar rats; [4]): —
- Histopathological result, Lymph nodes (Wistar rats; [4]): —
- Histopathological result, Pancreas (Wistar rats; [4]): —
- Histopathological result, Spleen (Wistar rats; [4]): —
- Histopathological result, Thymus (Wistar rats; [4]): —
- Histopathological result, Lung (Wistar rats; H&E, day 14, 1.50 mg per rat, animals 1001 and 1101, cell wraps over three grid rows: Partial stromal cell hyperplasia): Partial
- Histopathological result, Muscle tissue (Wistar rats; H&E, day 14, 1.50 mg per rat, injection site, animals 1001 and 1101): —
- Body weight change of rats (Wistar rats; empty LNP, 1.50 mg per rat i.m., 14 days, FIGS. 1-2): dropped initially, then recovered to the pre-administration level on Day 4-Day 6, and continued to increase subsequently
- Food intake change of rats (Wistar rats; empty LNP, 1.50 mg per rat i.m., 14 days, FIGS. 3-4): decreased initially, and returned to normal levels on Day 4-Day 7
- Relative organ weight, Brain (Wistar rats; [5]): 0.687
- Relative organ weight, Kidney left (Wistar rats; [5]): 0.351
- Relative organ weight, Kidney right (Wistar rats; [5]): 0.356
- Relative organ weight, Liver (Wistar rats; [5]): 3.773
- Relative organ weight, Lung (Wistar rats; [5]): 0.413
- Relative organ weight, Lymph nodes (Wistar rats; [5]): 0.006
- Relative organ weight, Spleen (Wistar rats; [5]): 0.250
- Relative organ weight, Thymus (Wistar rats; [5]): 0.149
- Relative organ weight, Heart (Wistar rats; empty LNP, 1.50 mg per rat i.m., day 14, organ weight/subject weight×100%, average of male, female rat): 0.308
- Heart, liver, kidney, spleen, thymus and lymph node coefficients compared with the solvent control group (Wistar rats; [6]): did not show significant difference
- Pathological change in the lung (Wistar rats; [6]): proliferation of partial interstitial cells in the lung
- Pathological change in the muscle tissue (Wistar rats; [6]): a small amount of inflammatory cell infiltration in the muscle tissue
- Pathological changes of heart, liver, kidney, spleen, thymus, and lymph nodes (Wistar rats; empty LNP, 1.50 mg per rat, day 14, compared with solvent control): no pathological changes
- Elispot counted T lymphocytes secreting INFγ ([1]; dose 5 μg): 161 and 153
- Elispot counted T lymphocytes secreting INFγ ([1]; dose 20 μg): 241 and 251
- Total photons number, Leg (BALB/c mice; 3 h): 3.91E+09
- Total photons number, Leg (BALB/c mice; 6 h): 4.16E+09
- Total photons number, Leg (BALB/c mice; 24 h): 2.90E+08
- S protein specific IgG antibody titer [2]: higher titers of IgG antibodies
- PDI [3, 7]: 0.088
- Size (nm) [3, 7]: 147 nm
- Encapsulated percentage (%) [3, 8]: 94%
- PI [3, 8]: 0.075
- Size (nm) [3, 8]: 86 nm
- Size (nm) ([3]; lipid nanoparticle of the ionizable lipid (ionizable lipid/phospholipid/PEG lipid/structural lipid 50/10/1.5/38.5 %) with mRNA, Table 1): 104.8 nm
- Encapsulated percentage (%) [3, 9]: 93.58%
- PDI [3, 9]: 0.0835
